Results published in paper doi:10.1101/2021.10.07.463234v2 (biorxiv, 2021).
Where a name gives a salt, the structure may show the parent alone. Square brackets hold non-standard residues; d marks the D form. Peptide text beside a SMILES is read from it. pGlu = O=C1CC[C@@H](C(=O)O)N1; Thz = O=C(O)[C@@H]1CSCN1

The compounds below were run against SARS-CoV-2 Mac1 (Severe acute respiratory syndrome coronavirus 2, UniProt P0DTD1) (assay: biochemical). Details: 100 µM; inhibitor.

Row | SMILES | %inhibition [%]
1 | NCCc1c[nH]cn1 [Histamine Phosphate] | 0
2 | CN(Cc1cnc2nc(N)nc(N)c2n1)c1ccc(C(=O)N[C@@H](CCC(=O)O)C(=O)O)cc1 [Methotrexate] | 59.68
3 | N[C@@H](Cc1cc(I)c(Oc2cc(I)c(O)c(I)c2)c(I)c1)C(=O)O [L-Thyroxine] | 10.74
4 | COc1ccccc1OCC(O)CN1CCN(CC(=O)Nc2c(C)cccc2C)CC1 (stereo not drawn) [Ranolazine] | 11.36
5 | C[C@H]1c2cccc(O)c2C(=O)C2=C(O)[C@]3(O)C(=O)C(C(N)=O)=C(O)[C@@H](N(C)C)[C@@H]3[C@@H](O)[C@@H]21 [Doxycycline] | 4.525
6 | COc1ccc2c(c1)c(CC(=O)O)c(C)n2C(=O)c1ccc(Cl)cc1 [Indometacin Sodium] | 0
7 | CC[C@H]1OC(=O)C[C@@H](O)[C@H](C)[C@@H](O[C@@H]2O[C@H](C)[C@@H](O)[C@H](N(C)C)[C@H]2O)[C@@H](CCN2C[C@H](C)C[C@H](C)C2)C[C@@H](C)C(=O)/C=C/C(C)=C/[C@@H]1CO[C@@H]1O[C@H](C)[C@@H](O)[C@@H](OC)[C@H]1OC [Tilmicosin phosphate] | 0
8 | CN1CCc2nc(C(=O)N[C@@H]3C[C@@H](C(=O)N(C)C)CC[C@@H]3NC(=O)C(=O)Nc3ccc(Cl)cn3)sc2C1 [Edoxaban tosylate Monohydrate] | 20.23
9 | CC(=O)Oc1ccccc1C(=O)O [Carbasalate Calcium] | 5.528
10 | Nc1ccc(S(=O)(=O)Nc2ncccn2)cc1 [Sulfadiazine] | 29.9

Same assay, conditions: read-out: %inhibition

Row | SMILES | inhibition at 100 µM [%]
11 | Cc1c(C)c2c(c(C)c1O)CCC(C)(COc1ccc(CC3SC(=O)NC3=O)cc1)O2 (stereo not drawn) [Troglitazone (CS-045)] | 5.13
12 | CCOC(CN1CCN(CC(C)C(=O)c2ccccc2)CC1)c1ccccc1 (stereo not drawn) [Eprazinone 2HCl] | 0
13 | CCCc1nc(C)c2c(O)nc(-c3cc(S(=O)(=O)N4CCN(CC)CC4)ccc3OCC)nn12 [Vardenafil HCl Trihydrate] | 3.9
14 | COc1cc2/c(=N/c3ccc(Br)cc3F)nc[nH]c2cc1OCC1CCN(C)CC1 [Vandetanib (ZD6474)] | 35.2
15 | C#C[C@]1(O)CC[C@H]2[C@@H]3CCC4=CC(=O)CC[C@@H]4[C@H]3C(=C)C[C@@]21CC [Etonogestrel] | 0
16 | C[C@H](CCC(=O)O)[C@H]1CC[C@H]2[C@@H]3C(=O)C[C@@H]4CC(=O)CC[C@]4(C)[C@H]3CC(=O)[C@]12C [Dehydrocholic acid] | 0
17 | CN(C)c1ccc(O)c2c1C[C@H]1C[C@H]3[C@H](N(C)C)C(O)=C(C(N)=O)C(=O)[C@@]3(O)C(O)=C1C2=O [Minocycline HCl] | 0
18 | CN(C)[C@@H]1C(O)=C(C(N)=O)C(=O)[C@@]2(O)C(O)=C3C(=O)c4c(O)cccc4[C@@](C)(O)[C@H]3[C@H](O)[C@@H]12 [Oxytetracycline Dihydrate] | 0
19 | C[C@@H](NCCc1ccc(O)cc1)[C@@H](O)c1ccc(O)cc1 (racemic) [Ritodrine HCl] | 33.2
20 | Cc1ccc(C(=O)Nc2ccc(CN3CCN(C)CC3)c(C(F)(F)F)c2)cc1C#Cc1cnc2cccnn12 [Ponatinib (AP24534)] | 5.09
21 | CO/N=C1\C[C@]2(C[C@@H]3C[C@@H](C/C=C(\C)C[C@@H](C)/C=C/C=C4\CO[C@@H]5[C@H](O)C(C)=C[C@@H](C(=O)O3)[C@]45O)O2)O[C@H](/C(C)=C/C(C)C)[C@H]1C [Moxidectin] | 7.63
22 | CCCCCOC(=O)Nc1nc(=O)n([C@@H]2O[C@H](C)[C@@H](O)[C@H]2O)cc1F [Capecitabine] | 6.29
23 | CCCCOc1ccc(OCCCN2CCOCC2)cc1 [Pramoxine HCl] | 25.7
24 | c1cc(CN2CCCNCCNCCCNCC2)ccc1CN1CCCNCCNCCCNCC1 [Plerixafor (AMD3100)] | 8.18
25 | O=C1CC[C@@H](C(=O)N2CSC[C@H]2C(=O)O)N1 [Pidotimod] ([pGlu]-[Thz]-OH) | 4.19
26 | NC[C@H](CC(=O)O)c1ccc(Cl)cc1 [(R)-baclofen] | 0
27 | Cc1onc(-c2ccccc2)c1C(=O)N[C@@H]1C(=O)N2[C@@H]1SC(C)(C)[C@@H]2C(=O)O [Oxacillin sodium monohydrate] | 0
28 | C[C@@H]1CN(c2c(F)c(N)c3c(=O)c(C(=O)O)cn(C4CC4)c3c2F)C[C@H](C)N1 [Sparfloxacin] | 25.5
29 | CN1CCN(c2c(F)cc3c(=O)c(C(=O)O)cn4c3c2OCN4C)CC1 [Marbofloxacin] | 18.3
30 | C=CC[C@@H]1/C=C(\C)C[C@H](C)C[C@H](OC)[C@H]2O[C@@](O)(C(=O)C(=O)N3CCCC[C@H]3C(=O)O[C@H](/C(C)=C/[C@@H]3CC[C@@H](O)[C@H](OC)C3)[C@H](C)[C@@H](O)CC1=O)[C@H](C)C[C@@H]2OC [Tacrolimus (FK506)] | 29.6

Row | SMILES | inhibition at 100 µM [%]
31 | NC(=O)C1CCCc2c1[nH]c1ccc(Cl)cc21 (stereo not drawn) [Selisistat (EX 527)] | 15.7
32 | CC(C)(S)[C@@H](N)C(=O)O [Penicillamine] | 0.561
33 | C#C[C@]1(O)CC[C@H]2[C@@H]3CCc4cc(OC5CCCC5)ccc4[C@H]3CC[C@@]21C [Quinestrol] | 0
34 | Nc1c2ccccc2nc2ccccc12 [9-Aminoacridine] | 0.915
35 | Cc1cc(O)cc(C)c1Cl [Chloroxylenol] | 0
36 | CN1CCN(CCCN2c3ccccc3Sc3ccc(C(F)(F)F)cc32)CC1 [Trifluoperazine 2HCl] | 0
37 | CNC[C@H](O)[C@@H](O)[C@H](O)[C@H](O)CO [Meglumine] | 15.6
38 | CC(CN(C)C)CN1c2ccccc2Sc2ccccc21 (stereo not drawn) [Alimemazine Tartrate] | 12.1
39 | CCN1CCN(C(=O)N[C@@H](C(=O)N[C@@H]2C(=O)N3[C@@H]2SC(C)(C)[C@@H]3C(=O)O)c2ccccc2)C(=O)C1=O [Piperacillin Sodium] | 24.2
40 | CC(C)C[C@H](NC(=O)CNC(=O)c1cc(Cl)ccc1Cl)B(O)O [Ixazomib (MLN2238)] | 5.63
41 | CO[C@@]1(NC(=O)CSCC#N)C(=O)N2C(C(=O)O)=C(CSc3nnnn3C)CS[C@@H]21 [Cefmetazole sodium] | 8.58
42 | CN(C)CCCOc1nn(Cc2ccccc2)c2ccccc12 [Benzydamine HCl] | 4.5
43 | CCn1cc(C(=O)O)c(=O)c2ccc(C)nc21 [Nalidixic acid] | 0
44 | O=c1oc2ccccc2c(O)c1Cc1c(O)c2ccccc2oc1=O [Dicoumarol] | 13.4
45 | CC(C)COc1ccc(CNC(=O)N(Cc2ccc(F)cc2)C2CCN(C)CC2)cc1 [Pimavanserin] | 1.16
46 | CC(=O)OCC[N+](C)(C)C [Acetylcholine iodide] | 0
47 | Cc1cc(C(C)(C)C)cc(C)c1CC1=NCCN1 [Xylometazoline HCl] | 9.99
48 | CC(=O)OCC(=O)[C@@]1(O)CC[C@H]2[C@@H]3CCC4=CC(=O)CC[C@]4(C)[C@H]3C(=O)C[C@@]21C [Cortisone acetate] | 10.7
49 | CO[C@@H]1[C@@H](OC(N)=O)[C@@H](O)[C@H](Oc2ccc3c(O)c(NC(=O)c4ccc(O)c(CC=C(C)C)c4)c(=O)oc3c2C)OC1(C)C [Novobiocin Sodium] | 0
50 | CCCCCN(C)CCC(O)(P(=O)(O)O)P(=O)(O)O [Ibandronate sodium] | 4.37

Row | SMILES | inhibition at 100 µM [%]
51 | Cn1ncc(Cl)c1-c1cc(C(=O)N[C@H](CN)Cc2cccc(F)c2)sc1Cl [Afuresertib (GSK2110183)] | 0
52 | NCC(=O)O [Glycine] | 0
53 | CC(C)OC(=O)CCC/C=C\C[C@@H]1[C@@H](/C=C/[C@@H](O)COc2cccc(C(F)(F)F)c2)[C@H](O)C[C@@H]1O [Travoprost] | 0
54 | CN1C(C(=O)Nc2ccccn2)=C(O)c2sccc2S1(=O)=O [Tenoxicam] | 0
55 | CCN[C@@H]1C[C@H](N)[C@@H](O[C@H]2OC(CN)=CC[C@H]2N)[C@H](O)[C@H]1O[C@H]1OC[C@](C)(O)[C@H](NC)[C@H]1O [Netilmicin Sulfate] | 0
56 | CC[C@@H]1/C=C(\C)C[C@H](C)C[C@H](OC)[C@H]2O[C@@](O)(C(=O)C(=O)N3CCCC[C@H]3C(=O)O[C@H](/C(C)=C/[C@@H]3CC[C@H](Cl)[C@H](OC)C3)[C@H](C)[C@@H](O)CC1=O)[C@H](C)C[C@@H]2OC [Pimecrolimus] | 25.5
57 | NCCc1cc(O)c(O)cc1O [Oxidopamine (hydrobromide)] | 0
58 | CCCNS(=O)(=O)Nc1ncnc(OCCOc2ncc(Br)cn2)c1-c1ccc(Br)cc1 [Macitentan] | 10
59 | CCNC(=O)[C@@H]1CCCN1C(=O)[C@H](CCCNC(=N)N)NC(=O)[C@H](CC(C)C)NC(=O)[C@@H](CC(C)C)NC(=O)[C@H](Cc1ccc(O)cc1)NC(=O)[C@H](CO)NC(=O)[C@H](Cc1c[nH]c2ccccc12)NC(=O)[C@H](Cc1c[nH]cn1)NC(=O)[C@@H]1CCC(=O)N1 [Leuprolide Acetate] | 13.2
60 | CNC(=O)c1ccccc1Sc1ccc2c(/C=C/c3ccccn3)n[nH]c2c1 [Axitinib] | 59.3
61 | CCOC(=O)c1c(C)n(C)c2ccc(O)cc12 [Mecarbinate] | 0
62 | N#Cc1ccnc(N2C(=O)CC[C@H]2C(=O)N(c2cncc(F)c2)[C@H](C(=O)NC2CC(F)(F)C2)c2ccccc2Cl)c1 [Ivosidenib (AG-120)] | 9.59
63 | COC(=O)Nc1nc2cc(C(=O)c3ccccc3)ccc2[nH]1 [Mebendazole] | 0
64 | CN(C)CCOC(c1ccc(Cl)cc1)c1ccccn1 (stereo not drawn) [CarbinoxaMine Maleate] | 0
65 | CC(C)C(Br)C(=O)NC(N)=O (stereo not drawn) [Bromisoval] | 0
66 | COC(=O)C1=C(C)NC(C)=C(C(=O)OC(C)C)C1c1cccc2nonc12 (stereo not drawn) [Isradipine] | 0
67 | CC(=O)S[C@@H]1CC2=CC(=O)CC[C@]2(C)[C@H]2CC[C@@]3(C)[C@@H](CC[C@@]34CCC(=O)O4)[C@H]12 [Spironolactone] | 6.62
68 | CC(=O)O[C@]1(C(C)=O)CC[C@H]2[C@@H]3C[C@H](C)C4=CC(=O)C=C[C@]4(C)[C@@]3(F)[C@@H](O)C[C@@]21C [Fluorometholone Acetate] | 22.8
69 | O=C(O)P(=O)(O)O [Foscarnet Sodium] | 2.46
